Measurements as given in publication PMC2690590, “Functional recombinant MHC class II molecules and high-throughput peptide-binding assays” (Immunome Research, 2009).
Like-named read-outs stand apart in the source and are kept apart here. Where no end group is shown, it is not given here.

Assays:
[1] = target: T1, DR2a (DRA*0101/DRB5*0101) (Homo sapiens, UniProt P01903+Q30154); assay: Competitive LOCI peptide-MHC-II binding assay, DR2a
T1 construct: DRA*01011-181LZFos; DRB5*01011-190LZJunBSP; made in house

[2] = target: T1, DR2a (DRA*0101/DRB5*0101); assay: Direct LOCI peptide-MHC-II binding assay, DR2a
DR3 (DRA*0101/DRB1*0301) = target: T2, DR3 (DRA*0101/DRB1*0301) (Homo sapiens, UniProt P01903+P01911, A100K/A102G/A103R/A169T/F55Y/I96L/K41T/L162R/M171V/P40S/Q125H/Q178H/Q39Y/R42S/S66N/T106N/T262R/W38E/Y61H); assay: Direct LOCI peptide-MHC-II binding assay, DR3
T2 construct: DRA*01011-181LZFos; DRB1*03011-190LZJunBSP; made in house

DR4 (DRA*0101/DRB1*0401) = target: T3, DR4 (DRA*0101/DRB1*0401) (Homo sapiens, UniProt P01903+P01911, A100K/A169T/F76Y/I96L/K127E/L162R/M171V/N62H/P40V/Q125Y/R42H/S133A/S149N/S66Y/V115G/V209L/W38E); assay: Direct LOCI peptide-MHC-II binding assay, DR4
T3 construct: DRA*01011-181LZFos; DRB1*04011-190LZJunBSP; made in house

[3] = target: T4, DRB1*0813 (DRA*0101/DRB1*0813) (Homo sapiens, UniProt P01903+P01911, A100R/A103L/A169T/F76Y/H45Y/I96L/K41T/L162R/M171V/P40S/Q125H/Q178H/Q39Y/Q99D/R218S/R42G/S66Y/V115G/W38E); assay: Direct LOCI peptide-MHC-II binding assay, DRB1*0813
T4 construct: DRA*01011-181LZFos; DRB1*08131-190LZJunBSP; made in house

[4] = target: T5, DRB3*0301 (DRA*0101/DRB3*0301) (Homo sapiens, UniProt P01903+P79483, A169T/A212P/D57E/G115V/L67V/Q178H/R103Q/R40L/Y55F); assay: Direct LOCI peptide-MHC-II binding assay, DRB3*0301
T5 construct: DRA*01011-181LZFos; DRB3*03011-190LZJunBSP; made in house

[5] = target: DP401 (DPA1*0103/DPB1*0401) (Homo sapiens, UniProt P04440+P20036); assay: Direct LOCI peptide-MHC-II binding assay, DP401
I-E^d = target: T6, I-E^d (Mus musculus, UniProt P01904+P01915); assay: Direct LOCI peptide-MHC-II binding assay, I-E^d
T6 construct: I-E^dA1-191LZFos; I-E^dB1-198LZJunBSP; made in house

[6] = pH 6-7.5, 48 h 18°C, read-out: DR2a Komp IC50
[7] = pH 6, 48 h 18°C, read-out: DR2a pH6 affinity
[8] = pH 6-7, 48 h 18°C, read-out: DR3 affinity
[9] = pH 6-7.5, 48 h 18°C, read-out: DR4 affinity
[10] = pH 6-7.5, 48 h 18°C, read-out: DRB1*0813 affinity
[11] = pH 7, 48 h 18°C, read-out: DRB3*0301 affinity
[12] = pH 7, 48 h 18°C, read-out: DP401 affinity
[13] = 48 h 18°C, read-out: I-E^D affinity

Molecule | Kd (DR3 (DRA*0101/DRB1*0301); [8]) | Kd [4, 11] | IC50 [1] | Kd [2] | Kd (I-E^d) | IC50 ([1]; DR2a Komp IC50 (nM)) | Kd [3] | Kd ([5]; DP401 affinity (nM)) | Kd (I-E^d; I-E^D affinity (nM)) | Kd (DR3 (DRA*0101/DRB1*0301)) | Kd [4] | Kd (DR4 (DRA*0101/DRB1*0401); DR4 affinity (nM)) | also measured
RMIAISAKV [Pox.o42.con.im. A2] | 516 nM | 1260 nM |  |  |  |  |  |  |  |  |  |  | IC50 [1, 6]: 1990 nM; Kd [2, 7]: 1650 nM; Kd (DR4 (DRA*0101/DRB1*0401); [9]): > 5000 nM; Kd [3, 10]: 267 nM; Kd [5, 12]: > 5000 nM; Kd (I-E^d; [13]): > 5000 nM
CSCC[C@H](NC(=O)[C@@H](N)Cc1ccccc1)C(=O)N[C@@H](CO)C(=O)N[C@@H](CCCNC(=N)N)C(=O)N[C@@H](CCCCN)C(=O)N[C@@H](CC(C)C)C(=O)N[C@@H](Cc1c[nH]cn1)C(=O)N[C@@H](CCCNC(=N)N)C(=O)N[C@@H](Cc1ccc(O)cc1)C(=O)O [Hantaan] |  |  | 2550 nM | > 5000 nM | 3 nM |  |  |  |  |  |  |  | 
FLIDLAFLI [Pox.o42.con A2] | > 5000 nM | > 5000 nM |  |  |  |  |  |  |  |  |  |  | IC50 [1, 6]: 4280 nM; Kd [2, 7]: > 5000 nM; Kd (DR4 (DRA*0101/DRB1*0401); [9]): > 5000 nM; Kd [3, 10]: > 5000 nM; Kd [5, 12]: 179 nM; Kd (I-E^d; [13]): > 5000 nM
CC[C@H](C)[C@H](NC(=O)[C@H](Cc1ccccc1)NC(=O)[C@@H]1CCCN1C(=O)[C@@H](N)Cc1ccc(O)cc1)C(=O)N[C@@H](CCC(=O)O)C(=O)N[C@@H](CCC(N)=O)C(=O)N[C@@H](CCC(=O)O)C(=O)NCC(=O)N1CCC[C@H]1C(=O)N[C@@H](CCC(=O)O)C(=O)N[C@@H](Cc1ccccc1)C(=O)N[C@@H](Cc1ccccc1)C(=O)N[C@@H](CC(=O)O)C(=O)N[C@@H](CCC(N)=O)C(=O)N[C@@H](CCC(=O)O)C(=O)O | 289 nM | 3230 nM |  | > 5000 nM |  | > 5000 nM | > 5000 nM | > 5000 nM | > 5000 nM |  |  |  | 
CC[C@H](C)[C@H](N)C(=O)N[C@H](C(=O)N[C@@H](Cc1ccccc1)C(=O)N[C@@H](CCSC)C(=O)N[C@@H](Cc1c[nH]c2ccccc12)C(=O)N[C@@H](C)C(=O)N[C@H](C(=O)N[C@@H](Cc1c[nH]cn1)C(=O)N[C@@H](Cc1c[nH]cn1)C(=O)O)[C@@H](C)CC)C(C)C [Flu HA1194-202] |  |  | 529 nM | 167 nM | > 5000 nM |  | 276 nM |  |  | > 5000 nM | > 5000 nM |  | Kd (DR4 (DRA*0101/DRB1*0401)): > 5000 nM; Kd [5]: > 5000 nM
YLFFYRKSV [TERT572Y] |  |  |  | 2650 nM |  | > 5000 nM | 95 nM | > 5000 nM | 322 nM | > 5000 nM |  | 1590 nM | 
HHHHHHIEGRFAALWFRNHFVFGGGTK [6xH Lambda 2(315)] |  |  |  | 5 nM |  | 20 nM | 8 nM | 2 nM | 26 nM | 882 nM | 1200 nM | 11 nM | 
YILLKKILSSRFNQM [Plasmodium Falciparum] |  |  |  | 4 nM |  | 2 nM | 4 nM | 1 nM | 20 nM | 32 nM | 1 nM | 94 nM | IC50 ([1]; IC50, DR2a inhibition assay): 0.6 nM; Kd (DR4 (DRA*0101/DRB1*0401); KD, DR4): 133 nM; Kd ([5]; KD, DP401): 0.8 nM; Kd (I-E^d; KD, I-E^d): 14 nM
CC(C)C[C@H](NC(=O)CNC(=O)[C@H](Cc1c[nH]c2ccccc12)NC(=O)CNC(=O)[C@@H](NC(=O)[C@@H]1CCCN1C(=O)[C@@H](NC(=O)[C@H](C)NC(=O)[C@H](CC(=O)O)NC(=O)[C@H](C)NC(=O)[C@H](Cc1ccccc1)NC(=O)[C@@H](NC(=O)[C@H](CCC(N)=O)NC(=O)[C@H](CS)NC(=O)[C@H](CC(C)C)NC(=O)[C@@H](N)Cc1ccc(O)cc1)C(C)C)[C@@H](C)O)[C@@H](C)O)C(=O)O |  |  | > 5000 nM | 3700 nM | > 5000 nM |  | 2990 nM |  |  | 69 nM | 2060 nM |  | Kd (DR4 (DRA*0101/DRB1*0401)): 18 nM; Kd [5]: 13 nM
FLYGALLLA [MBP] |  |  |  | > 5000 nM |  | > 5000 nM | > 5000 nM | 34 nM | > 5000 nM | > 5000 nM |  | > 5000 nM | 
